The numbers were not newly measured in US20160199396A1 (TEVA Pharmaceutical Industries Ltd., priority 2013, published 2016), which cites them from elsewhere.

For this data set the following is noted: background statement.

SMILES strings stand for the structures.

As to `CC(C)c1nc(CN(C)C(=O)N[C@H](C(=O)N[C@@H](Cc2ccccc2)C[C@H](O)[C@H](Cc2ccccc2)NC(=O)OCc2cncs2)C(C)C)cs1` [Ritonavir, 1,3-thiazol-5-ylmethyl N-[(2S,3S,5S)-3-hydroxy-5-[(2S)-3-methyl-2-{[methyl({[2-(propan-2-yl)-1,3-thiazol-4-yl]methyl})carbamoyl]amino}butanamido]-1,6-diphenylhexan-2-yl]carbamate], the “BCS (biopharmaceutical classification system) class” value is recorded as “class IV”.
